Test results from patent publication US10294202B2, “Pyrrolidinones as herbicides” (FMC Corporation, priority 2013, dated 2019).

Legend:
giant foxtail = assay: Test A pre-/postemergence herbicide test; assay type: in vivo, Setaria faberii
Procedure, shortened: (§1)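 Visual injury ratings, 0 = no effect, 100 = complete control, taken ~10 days after treatment against untreated greenhouse controls. Preemergence: directed soil spray onto seeded loam/sand pots. Postemergence: spray onto plants at one- to two-leaf stage, 2–10 cm tall.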

sedge, umbrella = assay: Test C flooded paddy test; assay type: in vivo, Cyperus difformis; conditions: Flood
Procedure, shortened: (§2)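 Plants grown to the 2-leaf stage; pots flooded to 3 cm above soil and compound applied directly into the paddy water, depth kept throughout. Greenhouse 13 to 15 days, then visual rating vs untreated controls on 0–100 scale (0 no effect, 100 complete control); dash means no result.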

pigweed = assay: Test A pre-/postemergence herbicide test; assay type: in vivo, Amaranthus retroflexus
Procedure, shortened: as §1

velvetleaf = assay: Test A pre-/postemergence herbicide test; assay type: in vivo, Abutilon theophrasti
Procedure, shortened: as §1

rice = assay: Test C flooded paddy test; assay type: in vivo, Oryza sativa; conditions: Flood
Text: (§3) Plant species in the flooded paddy test consisted of rice (Oryza sativa), sedge, umbrella (small-flower umbrella sedge, Cyperus difformis), ducksalad (Heteranthera limosa), and barnyardgrass (Echinochloa crus-galli) grown to the 2-leaf stage for testing. At time of treatment, test pots were flooded to 3 cm above the soil surface, treated by application of test compounds directly to the paddy water, and then maintained at that water depth for the duration of the test. Treated plants and controls were maintained in a greenhouse for 13 to 15 days, after which time all species were compared to controls and visually evaluated. Plant response ratings, summarized in Table C, are based on a scale of 0 to 100 where 0 is no effect and 100 is complete control. A dash (-) response means no test result.

ducksalad = assay: Test C flooded paddy test; assay type: in vivo, Heteranthera limosa; conditions: Flood
Procedure, shortened: as §2

barnyardgrass [1] = assay: Test C flooded paddy test; assay type: in vivo, Echinochloa crus-galli; conditions: Flood
Text: as §3

corn = assay: Test A pre-/postemergence herbicide test; assay type: in vivo, Zea mays
Procedure, shortened: as §1

crabgrass, large = assay: Test A pre-/postemergence herbicide test; assay type: in vivo, Digitaria sanguinalis
Procedure, shortened: as §1

barnyardgrass [2] = assay: Test A pre-/postemergence herbicide test; assay type: in vivo, Echinochloa crus-galli
Procedure, shortened: as §1

morningglory = assay: Test A pre-/postemergence herbicide test; assay type: in vivo, Ipomoea spp.
Procedure, shortened: as §1

wheat = assay: Test A pre-/postemergence herbicide test; assay type: in vivo, Triticum aestivum
Procedure, shortened: as §1

[3] = Postemergence, 125 g ai/ha, 0 to 100 scale, 0 no effect, 100 complete control
[4] = Postemergence, 500 g ai/ha, 0 to 100 scale (0 no effect, 100 complete control)
[5] = Preemergence, 125 g ai/ha, visual rating on 0 to 100 scale (0 no effect, 100 complete control)
[6] = preemergence, 500 g ai/ha, 0 to 100 scale
[7] = 31 g ai/ha, scale of 0 to 100 where 0 is no effect and 100 is complete control, 13 to 15 days
[8] = 62 g ai/ha, scale of 0 to 100 where 0 is no effect and 100 is complete control, 13 to 15 days
[9] = 125 g ai/ha, scale of 0 to 100 where 0 is no effect and 100 is complete control, 13 to 15 days
[10] = 125 g ai/ha, visual rating, 0 to 100 scale, 0 no effect, 100 complete control, approximately 10 days, preemergence
[11] = Postemergence, 125 g ai/ha, 0 to 100 scale, 0 is no effect, 100 is complete control
[12] = preemergence, 500 g ai/ha, 0 to 100 scale, 0 is no effect and 100 is complete control
[13] = 250 g ai/ha, scale of 0 to 100 where 0 is no effect and 100 is complete control, 13 to 15 days

In the case of O=C1NCC(c2ccsc2)C1C(=O)Nc1ccccc1F (racemic) [Compound 29], the “Plant response rating, Foxtail, Giant” value (giant foxtail; [3]) was 0, the “Plant response rating, Foxtail, Giant” value (giant foxtail; [4]) was 0 and the “Foxtail, Giant plant response rating” value (giant foxtail; [5]) was 0. The “Plant response rating, Foxtail, Giant” value (giant foxtail; [6]) was 0, the “Plant response rating, Sedge, Umbrella” value (sedge, umbrella; [7]) was 0 and the “Plant response rating, Sedge, Umbrella” value (sedge, umbrella; [8]) was 0. The “Plant response rating, Sedge, Umbrella” value (sedge, umbrella; [9]) was 0, the “Plant response rating, Sedge, Umbrella” value (sedge, umbrella; 250 g ai/ha, scale 0 to 100) was 0 and the “Plant response rating, Pigweed” value (pigweed; [3]) was 0. The “Plant response rating, Pigweed” value (pigweed; [4]) was 0, the “Pigweed plant response rating” value (pigweed; [5]) was 0 and the “Plant response rating, Pigweed” value (pigweed; [6]) was 0. For the same molecule, the “Plant response rating, Velvetleaf” value (velvetleaf; [3]) was 0, the “Plant response rating, Velvetleaf” value (velvetleaf; [4]) was 0 and the “Velvetleaf plant response rating” value (velvetleaf; [5]) was 0. For the same molecule, the “Plant response rating, Velvetleaf” value (velvetleaf; [6]) was 0, the “Plant response rating, Rice” value (rice; [7]) was 0 and the “Plant response rating, Rice” value (rice; [8]) was 0. The “Plant response rating, Rice” value (rice; [9]) was 0, the “Plant response rating, Rice” value (rice; 250 g ai/ha, scale 0 to 100) was 0 and the “Plant response rating, Ducksalad” value (ducksalad; [7]) was 0. For the same molecule, the “Plant response rating, Ducksalad” value (ducksalad; [8]) was 0, the “Plant response rating, Ducksalad” value (ducksalad; [9]) was 0 and the “Plant response rating, Ducksalad” value (ducksalad; 250 g ai/ha, scale 0 to 100) was 40. The “Plant response rating, Barnyardgrass” value (barnyardgrass [1]; [7]) was 0, the “Plant response rating, Barnyardgrass” value (barnyardgrass [1]; [8]) was 0 and the “Plant response rating, Barnyardgrass” value (barnyardgrass [1]; [9]) was 0. The “Plant response rating, Barnyardgrass” value (barnyardgrass [1]; 250 g ai/ha, scale 0 to 100) was 0, the “Plant response rating, Corn” value (corn; [3]) was 0 and the “Plant response rating, Corn” value (corn; [4]) was 0. The “Corn plant response rating” value (corn; [5]) was 0, the “Plant response rating, Corn” value (corn; [6]) was 0 and the “Plant response rating, Crabgrass, Large” value (crabgrass, large; [3]) was 0. For the same molecule, the “Plant response rating, Crabgrass, Large” value (crabgrass, large; [4]) was 0, the “Crabgrass, Large plant response rating” value (crabgrass, large; [5]) was 30 and the “Plant response rating, Crabgrass, Large” value (crabgrass, large; [6]) was 70. The “Plant response rating, Barnyardgrass” value (barnyardgrass [2]; [3]) was 0, the “Plant response rating, Barnyardgrass” value (barnyardgrass [2]; [4]) was 0 and the “Barnyardgrass plant response rating” value (barnyardgrass [2]; [5]) was 0. For the same molecule, the “Plant response rating, Barnyardgrass” value (barnyardgrass [2]; preemergence, 500 g ai/ha, 0 to 100 scale (0 no effect, 100 complete control)) was 50, the “Plant response rating, Morningglory” value (morningglory; [3]) was 0 and the “Plant response rating, Morningglory” value (morningglory; [4]) was 0. The “Morningglory plant response rating” value (morningglory; [5]) was 0, the “Plant response rating, Morningglory” value (morningglory; [6]) was 0 and the “Plant response rating, Wheat” value (wheat; [3]) was 0. For the same molecule, the “Plant response rating, Wheat” value (wheat; [4]) was 0, the “Wheat plant response rating” value (wheat; [5]) was 0 and the “Plant response rating, Wheat” value (wheat; [6]) was 0.

With O=C1NCC(c2cccc(C(F)(F)F)c2)C1C(=O)Nc1ccccc1Br (racemic) [Compound 190] the “Plant response rating, Foxtail, Giant” value (giant foxtail; [10]) was 80, the “Plant response rating, Foxtail, Giant” value (giant foxtail; [11]) was 70 and the “Foxtail, Giant plant response rating (0 to 100 scale, 0 is no effect, 100 is complete control)” value (giant foxtail; Postemergence, 500 g ai/ha) was 80. The “Plant response rating, Foxtail, Giant” value (giant foxtail; [12]) was 90, the “Plant response rating, Sedge, Umbrella” value (sedge, umbrella; [9]) was 0 and the “Plant response rating, Sedge, Umbrella” value (sedge, umbrella; [13]) was 0. For the same molecule, the “Plant response rating, Sedge, Umbrella” value (sedge, umbrella; 500 g ai/ha, scale 0 to 100) was 0, the “Plant response rating, Sedge, Umbrella” value (sedge, umbrella; 1000 g ai/ha, scale 0 to 100) was 0 and the “Plant response rating, Pigweed” value (pigweed; [10]) was 0. For the same molecule, the “Plant response rating, Pigweed” value (pigweed; [11]) was 0, the “Pigweed plant response rating (0 to 100 scale, 0 is no effect, 100 is complete control)” value (pigweed; Postemergence, 500 g ai/ha) was 0 and the “Plant response rating, Pigweed” value (pigweed; [12]) was 0. For the same molecule, the “Plant response rating, Velvetleaf” value (velvetleaf; [10]) was 0, the “Plant response rating, Velvetleaf” value (velvetleaf; [11]) was 0 and the “Velvetleaf plant response rating (0 to 100 scale, 0 is no effect, 100 is complete control)” value (velvetleaf; Postemergence, 500 g ai/ha) was 10. The “Plant response rating, Velvetleaf” value (velvetleaf; [12]) was 0, the “Plant response rating, Rice” value (rice; [9]) was 0 and the “Plant response rating, Rice” value (rice; [13]) was 0. For the same molecule, the “Plant response rating, Rice” value (rice; 500 g ai/ha, scale 0 to 100) was 0, the “Plant response rating, Rice” value (rice; 1000 g ai/ha, scale 0 to 100) was 15 and the “Plant response rating, Ducksalad” value (ducksalad; [9]) was 50. For the same molecule, the “Plant response rating, Ducksalad” value (ducksalad; [13]) was 75, the “Plant response rating, Ducksalad” value (ducksalad; 500 g ai/ha, scale 0 to 100) was 85 and the “Plant response rating, Ducksalad” value (ducksalad; 1000 g ai/ha, scale 0 to 100) was 100. The “Plant response rating, Barnyardgrass” value (barnyardgrass [1]; [9]) was 10, the “Plant response rating, Barnyardgrass” value (barnyardgrass [1]; [13]) was 25 and the “Plant response rating, Barnyardgrass” value (barnyardgrass [1]; 500 g ai/ha, scale 0 to 100) was 50. For the same molecule, the “Plant response rating, Barnyardgrass” value (barnyardgrass [1]; 1000 g ai/ha, scale 0 to 100) was 65, the “Plant response rating, Corn” value (corn; [10]) was 0 and the “Plant response rating, Corn” value (corn; [11]) was 0. For the same molecule, the “Corn plant response rating (0 to 100 scale, 0 is no effect, 100 is complete control)” value (corn; Postemergence, 500 g ai/ha) was 40, the “Plant response rating, Corn” value (corn; [12]) was 0 and the “Plant response rating, Crabgrass, Large” value (crabgrass, large; [10]) was 90. The “Plant response rating, Crabgrass, Large” value (crabgrass, large; [11]) was 70, the “Crabgrass, Large plant response rating (0 to 100 scale, 0 is no effect, 100 is complete control)” value (crabgrass, large; Postemergence, 500 g ai/ha) was 90 and the “Plant response rating, Crabgrass, Large” value (crabgrass, large; [12]) was 90. For the same molecule, the “Plant response rating, Barnyardgrass” value (barnyardgrass [2]; [10]) was 60, the “Plant response rating, Barnyardgrass” value (barnyardgrass [2]; [11]) was 70 and the “Barnyardgrass plant response rating (0 to 100 scale, 0 is no effect, 100 is complete control)” value (barnyardgrass [2]; Postemergence, 500 g ai/ha) was 90. For the same molecule, the “Plant response rating, Barnyardgrass” value (barnyardgrass [2]; [12]) was 90, the “Plant response rating, Morningglory” value (morningglory; [10]) was 0 and the “Plant response rating, Morningglory” value (morningglory; [11]) was 0. The “Morningglory plant response rating (0 to 100 scale, 0 is no effect, 100 is complete control)” value (morningglory; Postemergence, 500 g ai/ha) was 10, the “Plant response rating, Morningglory” value (morningglory; [12]) was 0 and the “Plant response rating, Wheat” value (wheat; [10]) was 0. For the same molecule, the “Plant response rating, Wheat” value (wheat; [11]) was 0, the “Wheat plant response rating (0 to 100 scale, 0 is no effect, 100 is complete control)” value (wheat; Postemergence, 500 g ai/ha) was 0 and the “Plant response rating, Wheat” value (wheat; [12]) was 30.
